Data taken from patent publication US8845879B2 (priority 2010, dated 2014).
Read-outs that look alike come from different tables or passages of the source.

Columns and labels:
[1] = test system: mitochondria isolated from Saccharomyces cerevisiae; type: biochemical
[2] = test system: immobilized mouse liver mitochondria; type: biochemical
[3] = before vs after overnight soak at 4° C. in pesticide solution, average ± standard deviation

O=C(O)COc1ccc(Cl)cc1Cl [2,4-D, 2,4-Dichlorophenoxyacetic acid]
change in peak area (ΔAh) [1]: −8.237E−05 ± 1.713E−05 C
change in peak height (Δip) [1]: −1.617E−06 ± 5.286E−07 A

CCNc1nc(Cl)nc(NC(C)C)n1 [Atrazine]
change in peak area (ΔAh) [1]: −6.809E−05 ± 1.708E−05 C
change in peak height (Δip) [1]: −8.290E−07 ± 2.197E−07 A

COc1ccc2nc([S@@+]([O-])Cc3ncc(C)c(OC)c3C)[nH]c2c1 [Esomeprazole]
attenuated current [2]: 16.8±6.4%
attenuation (decrease) in current [2]: 1.7±10.3%
attenuation in metabolic energy conversion [2]: 19.9±7.6%
attenuation in metabolic energy production [2]: 58.8±11.1%

C[n+]1ccc(-c2cc[n+](C)cc2)cc1 [Paraquat]
change in peak area (ΔAh) [1]: −3.690E−05 ± 1.109E−05 C
change in peak height (Δip) [1]: −8.582E−07 ± 1.870E−07 A

CCOP(=S)(OCC)Oc1ccc([N+](=O)[O-])cc1 [Parathion]
change in peak area (ΔAh) [1, 3]: −2.721E−05 ± 9.349E−06 C
change in peak height (Δip) [1, 3]: −4.491E−07 ± 2.512E−07 A

CC1(C)C(C=C(Cl)Cl)C1C(=O)OCc1cccc(Oc2ccccc2)c1 (stereo not drawn) [Permethrin]
change in peak area (ΔAh) [1]: −6.597E−05 ± 1.238E−05 C
change in peak height (Δip) [1]: −1.015E−06 ± 2.065E−07 A

O=C(O)c1ccccc1O [Salicylic acid]
change in current after treatment (in words) [2]: not statistically significant
higher metabolic energy flux than untreated mitochondria [2]: 18.6±1.5%

CC1=NS(=O)(=O)c2cc(Cl)ccc2N1 [diazoxide]
inhibition of mitochondrial function (in words) [2]: partial inhibition

CC[C@H]1/C=C/C=C/C[C@@H](C)[C@H](O)[C@@](C)(O)C(=O)[C@@H](C)[C@H](O)[C@@H](C)C(=O)[C@@H](C)[C@H](O)[C@@H](C)/C=C/C(=O)O[C@@H]2[C@H](C)[C@H](CC1)O[C@]1(CC[C@H](C)[C@H](C[C@@H](C)O)O1)[C@H]2C [oligomycin]
attenuation (decrease) in current [2]: 36.5±3.7%
attenuation in metabolic energy conversion [2]: 60.9±1.0%

C=C(C)[C@H]1Cc2c(ccc3c2O[C@@H]2COc4cc(OC)c(OC)cc4[C@@H]2C3=O)O1 [rotenone]
inhibition of mitochondrial function (in words) [2]: strong inhibitory response

antimycin
inhibition of mitochondrial function (in words) [2]: strong inhibitory response
